Consider six compounds from US20240174618A1, “SUBSTITUTED (2-HETEROARYLOXYPHENYL)SULFONATES, SALTS THEREOF AND THEIR USE AS HERBICIDAL AGENTS” (Bayer Aktiengesellschaft, priority 2021, published 2024).

Common to all, as to type: in vivo
Assay [1] deals with Abutilon theophrasti (ABUTH). The assay is described as follows: A. Herbicidal pre-emergence efficacy, ABUTH. The conditions noted are these: scored visually after about 3 weeks vs untreated controls. In outline: (§1)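 Applied before emergence onto covering soil at rates of 1280 g/ha or less, using 600 L/ha spray water with 0.5% additive. Scoring: visual % efficacy after ~3 weeks, greenhouse.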

The test system of assay [2] is Veronica persica (VERPE). Briefly: A. Herbicidal pre-emergence efficacy, VERPE. The conditions noted are these: for Pre-emergence efficacy against VERPE: dosage 80 g/ha. In outline:
as §1

Assay [3] relates to Echinochloa crus-galli (ECHCG). The assay is described as follows: E. Herbicidal post-emergence efficacy, ECHCG. In outline:
(§2)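 Visual scoring against untreated plants was done roughly 3 weeks after spraying (0% = no effect, 100% = plants dead). Spray application at 320 g/ha or lower, 600 l/ha water with 0.5% additive, was made onto green parts of one-leaf-stage greenhouse plants grown 2-3 weeks in sandy loam.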

Assay [4] deals with Kochia scoparia (KCHSC). Briefly: A. Herbicidal pre-emergence efficacy, KCHSC. In short, it runs like this:
as §1

Assay [5] deals with Viola tricolor (VIOTR). Briefly: E. Herbicidal post-emergence efficacy, VIOTR. In short, it runs like this: as §2
The subject of assay [6] is Veronica persica (VERPE). The assay is described as follows: C. Herbicidal pre-emergence efficacy, VERPE. The following applies: scored after about 3 weeks. In short, it runs like this: (§3)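 Pre-emergence test: formulated compounds sprayed as aqueous suspension or emulsion with 0.5% additive at 600 l/ha onto soil covering sown seeds, at rates corresponding to 320 g/ha or less. After about 3 weeks in greenhouse, efficacy scored visually as percent versus untreated controls (100% = plants dead).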

For assay [7], the system named is Setaria viridis (SETVI). The assay is described as follows: B. Herbicidal post-emergence efficacy, SETVI. In short, it runs like this: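 Post-emergence foliar spray, at application rates of 1280 g/ha or less, on one-leaf-stage plants 2–3 weeks post-sowing, using aqueous WP or EC suspensions with 0.5% additive at 600 L/ha. Visual percent efficacy relative to untreated plants scored roughly 3 weeks later in the greenhouse.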

For assay [8], the system named is Alopecurus myosuroides (ALOMY). The assay is described as follows: C. Herbicidal pre-emergence efficacy, ALOMY. The conditions noted are these: scored after about 3 weeks. In outline:
as §3

The mark [9] stands for this setting: pre-emergence, dosage 1280 g/ha.
Setting [10] is: 80 g/ha, scored visually after about 3 weeks vs untreated controls.

For `O=S(=O)(CCC(F)(F)F)Oc1c(Cl)cccc1Oc1ncc(Cl)cn1` [Example I-38], the “Pre-emergence efficacy against ABUTH” value in assay [1] (80 g/ha), in assay [1] (320 g/ha) and in assay [1] (1280 g/ha) was 100% throughout. Also, the “Pre-emergence efficacy against VERPE in %” value turned out to be 90% in assay [2] (320 g/ha) and 100% in assay [2] (1280 g/ha). For the same compound, the entries for the “Pre-emergence efficacy against VERPE” value in assay [2], in assay [6] (80 g/ha) and in assay [6] (320 g/ha) were 90%, 100% and 100%, respectively. The “Post-emergence efficacy against ECHCG in %” value in assay [3] (application rate 320 g/ha) amounted to 100%. The “Pre-emergence efficacy against KCHSC” value in assay [4] (pre-emergence, dosage 320 g/ha) was 100%; in assay [4] (setting [9]) it was 100%. In addition, the “Post-emergence efficacy against VIOTR in %” value in assay [5] (application rate 80 g/ha) and in assay [5] (application rate 320 g/ha) was 100% in each case. For the same compound, the “Post-emergence efficacy against SETVI” value in assay [7] (1280 g/ha) turned out to be 90%. For the same compound, the “Pre-emergence efficacy against ALOMY” value in assay [8] (320 g/ha) was 100%.

For the compound `O=S(=O)(CCCC(F)(F)F)Oc1c(Cl)cccc1Oc1ncc(Cl)cn1` [Example I-39], the results for the “Pre-emergence efficacy against ABUTH” value in assay [1] (80 g/ha), in assay [1] (320 g/ha) and in assay [1] (1280 g/ha) were 90%, 100% and 100%, respectively. For the same compound, the “Pre-emergence efficacy against VERPE in %” value in assay [2] (320 g/ha) and in assay [2] (1280 g/ha) was 100% throughout. Moreover, the “Pre-emergence efficacy against VERPE” value in assay [2] is given as 90%; in assay [6] (80 g/ha), 100%; in assay [6] (320 g/ha), 100%. For the same compound, the “Post-emergence efficacy against ECHCG in %” value in assay [3] (application rate 80 g/ha) is given as 90%; in assay [3] (application rate 320 g/ha), 100%. For the same compound, the “Pre-emergence efficacy against KCHSC” value is listed as 100% in assay [4] (setting [10]); 100% in assay [4] (pre-emergence, dosage 320 g/ha); 100% in assay [4] (setting [9]). Also, the “Post-emergence efficacy against VIOTR in %” value in assay [5] (application rate 80 g/ha) and in assay [5] (application rate 320 g/ha) was 100% throughout. Moreover, the “Post-emergence efficacy against SETVI” value in assay [7] (320 g/ha) and in assay [7] (1280 g/ha) was 90% each time. In addition, in assay [8] (320 g/ha), the “Pre-emergence efficacy against ALOMY” value came to 100%.

Regarding `O=S(=O)(CCC(F)(F)F)Oc1c(F)cccc1Oc1ncc(Br)cn1` [Example I-40], the “Pre-emergence efficacy against ABUTH” value in assay [1] (80 g/ha), in assay [1] (320 g/ha) and in assay [1] (1280 g/ha) was 100% throughout. Also, the “Pre-emergence efficacy against VERPE in %” value in assay [2] (320 g/ha) and in assay [2] (1280 g/ha) was 100% each time. Further, the “Pre-emergence efficacy against VERPE” value in assay [2], in assay [6] (80 g/ha) and in assay [6] (320 g/ha) was 100% each time. Also, the “Post-emergence efficacy against ECHCG in %” value in assay [3] (application rate 80 g/ha) and in assay [3] (application rate 320 g/ha) was 100% each time. For the same compound, the “Pre-emergence efficacy against KCHSC” value is listed as 100% in assay [4] (setting [10]); 100% in assay [4] (pre-emergence, dosage 320 g/ha); 100% in assay [4] (setting [9]). The “Post-emergence efficacy against VIOTR in %” value in assay [5] (application rate 80 g/ha) and in assay [5] (application rate 320 g/ha) was 100% each time. Further, the “Post-emergence efficacy against SETVI” value in assay [7] (320 g/ha) and in assay [7] (1280 g/ha) was 90% in each case. Moreover, the “Pre-emergence efficacy against ALOMY” value in assay [8] (320 g/ha) is reported as 100%.

On to `O=S(=O)(CCCC(F)(F)F)Oc1c(F)cccc1Oc1ncc(Br)cn1` [Example I-41], for which the “Pre-emergence efficacy against ABUTH” value in assay [1] (320 g/ha) and in assay [1] (1280 g/ha) was 100% throughout. The “Pre-emergence efficacy against VERPE in %” value in assay [2] (320 g/ha) and in assay [2] (1280 g/ha) was 100% in each case. The “Pre-emergence efficacy against VERPE” value in assay [2] is 90%; in assay [6] (80 g/ha), 100%; in assay [6] (320 g/ha), 100%. Further, the “Post-emergence efficacy against ECHCG in %” value turned out to be 90% in assay [3] (application rate 80 g/ha) and 100% in assay [3] (application rate 320 g/ha). Moreover, the “Pre-emergence efficacy against KCHSC” value was 100% in assay [4] (setting [10]); 100% in assay [4] (pre-emergence, dosage 320 g/ha); 100% in assay [4] (setting [9]). The “Post-emergence efficacy against VIOTR in %” value in assay [5] (application rate 80 g/ha) and in assay [5] (application rate 320 g/ha) was 100% throughout. The “Post-emergence efficacy against SETVI” value in assay [7] (320 g/ha) and in assay [7] (1280 g/ha) was 90% throughout. In addition, in assay [8] (320 g/ha), the “Pre-emergence efficacy against ALOMY” value is listed as 100%.

Regarding `O=S(=O)(CC1CC(F)(F)C1)Oc1c(F)cccc1Oc1ncc(Cl)cn1` [Example I-53], the “Pre-emergence efficacy against ABUTH” value in assay [1] (80 g/ha), in assay [1] (320 g/ha) and in assay [1] (1280 g/ha) was 100% in each case. For the same compound, the “Pre-emergence efficacy against VERPE in %” value in assay [2] (320 g/ha) and in assay [2] (1280 g/ha) was 100% each time. Moreover, the “Pre-emergence efficacy against VERPE” value in assay [2], in assay [6] (80 g/ha) and in assay [6] (320 g/ha) was 100% each time. For the same compound, the “Post-emergence efficacy against ECHCG in %” value in assay [3] (application rate 80 g/ha) and in assay [3] (application rate 320 g/ha) was 100% throughout. In addition, the “Pre-emergence efficacy against KCHSC” value stood at 100% in assay [4] (setting [10]); 100% in assay [4] (pre-emergence, dosage 320 g/ha); 100% in assay [4] (setting [9]). For the same compound, the “Post-emergence efficacy against VIOTR in %” value in assay [5] (application rate 80 g/ha) and in assay [5] (application rate 320 g/ha) was 100% each time. For the same compound, the “Post-emergence efficacy against SETVI” value in assay [7] (320 g/ha) and in assay [7] (1280 g/ha) was 90% in each case. Further, the “Pre-emergence efficacy against ALOMY” value in assay [8] (80 g/ha) was found to be 90%; in assay [8] (320 g/ha) it was 100%.

On to `O=S(=O)(CCCC(F)(F)C(F)(F)F)Oc1c(F)cccc1Oc1ncc(Cl)cn1` [Example I-68], for which the “Pre-emergence efficacy against ABUTH” value in assay [1] (1280 g/ha) came out at 100%. Besides, the “Pre-emergence efficacy against VERPE in %” value in assay [2] (320 g/ha) and in assay [2] (1280 g/ha) was 100% each time. Moreover, in assay [3] (application rate 320 g/ha), the “Post-emergence efficacy against ECHCG in %” value is recorded as 90%. In addition, the “Pre-emergence efficacy against KCHSC” value is 90% in assay [4] (setting [10]); 100% in assay [4] (pre-emergence, dosage 320 g/ha); 100% in assay [4] (setting [9]). Also, the “Post-emergence efficacy against VIOTR in %” value in assay [5] (application rate 80 g/ha) and in assay [5] (application rate 320 g/ha) was 100% in each case. Further, the “Pre-emergence efficacy against VERPE” value in assay [6] (80 g/ha) and in assay [6] (320 g/ha) was 90% throughout. Moreover, the “Post-emergence efficacy against SETVI” value in assay [7] (320 g/ha) and in assay [7] (1280 g/ha) was 90% in each case. In addition, the “Pre-emergence efficacy against ALOMY” value in assay [8] (320 g/ha) came to 90%.
